# pIC50: −log10 of the molar value.
# Legend:
# Dipeptidyl peptidase 9 = Dipeptidyl peptidase 9 (Homo sapiens, UniProt Q86TI2); test: Inhibition of human recombinant DPP9
# [1] = Oral bioavailability in rat at 3 mg/kg administered in 10% PEG300/90% PBS; format: ADME, organism-based; conditions: in vivo
# [2] = Clearance in rat at 1 mg/kg, iv administered in 10% PEG300/90% PBS; format: ADME, organism-based; design: dose 1 mg/kg, route intravenous; conditions: in vivo
# [3] = Half life in rat at 1 mg/kg, iv administered in 10% PEG300/90% PBS; format: ADME, organism-based; design: dose 1 mg/kg, route intravenous; conditions: in vivo
# [4] = Volume of distribution at steady state in rat at 1 mg/kg, iv administered in 10% PEG300/90% PBS; format: ADME, organism-based; design: dose 1 mg/kg, route intravenous; conditions: in vivo, read-out: Vdss
# [5] = AUC (0 to 8 hrs) in rat at 3 mg/kg, po administered in 10% PEG300/90% PBS; format: ADME, organism-based; design: time < 8 hr, dose 3 mg/kg, route oral; conditions: plasma
# [6] = Cmax in rat at 3 mg/kg, po administered in 10% PEG300/90% PBS; format: ADME, organism-based; design: dose 3 mg/kg, route oral; conditions: in vivo
# [7] = Tmax in rat at 3 mg/kg, po administered in 10% PEG300/90% PBS; format: ADME, organism-based; design: dose 3 mg/kg, route oral; conditions: in vivo
# [8] = biological target: Voltage-gated inwardly rectifying potassium channel KCNH2 (Homo sapiens, UniProt Q12809); test: Inhibition of human ERG by dofetilide binding assay
# Sequence of Voltage-gated inwardly rectifying potassium channel KCNH2 (Q12809 whole entry): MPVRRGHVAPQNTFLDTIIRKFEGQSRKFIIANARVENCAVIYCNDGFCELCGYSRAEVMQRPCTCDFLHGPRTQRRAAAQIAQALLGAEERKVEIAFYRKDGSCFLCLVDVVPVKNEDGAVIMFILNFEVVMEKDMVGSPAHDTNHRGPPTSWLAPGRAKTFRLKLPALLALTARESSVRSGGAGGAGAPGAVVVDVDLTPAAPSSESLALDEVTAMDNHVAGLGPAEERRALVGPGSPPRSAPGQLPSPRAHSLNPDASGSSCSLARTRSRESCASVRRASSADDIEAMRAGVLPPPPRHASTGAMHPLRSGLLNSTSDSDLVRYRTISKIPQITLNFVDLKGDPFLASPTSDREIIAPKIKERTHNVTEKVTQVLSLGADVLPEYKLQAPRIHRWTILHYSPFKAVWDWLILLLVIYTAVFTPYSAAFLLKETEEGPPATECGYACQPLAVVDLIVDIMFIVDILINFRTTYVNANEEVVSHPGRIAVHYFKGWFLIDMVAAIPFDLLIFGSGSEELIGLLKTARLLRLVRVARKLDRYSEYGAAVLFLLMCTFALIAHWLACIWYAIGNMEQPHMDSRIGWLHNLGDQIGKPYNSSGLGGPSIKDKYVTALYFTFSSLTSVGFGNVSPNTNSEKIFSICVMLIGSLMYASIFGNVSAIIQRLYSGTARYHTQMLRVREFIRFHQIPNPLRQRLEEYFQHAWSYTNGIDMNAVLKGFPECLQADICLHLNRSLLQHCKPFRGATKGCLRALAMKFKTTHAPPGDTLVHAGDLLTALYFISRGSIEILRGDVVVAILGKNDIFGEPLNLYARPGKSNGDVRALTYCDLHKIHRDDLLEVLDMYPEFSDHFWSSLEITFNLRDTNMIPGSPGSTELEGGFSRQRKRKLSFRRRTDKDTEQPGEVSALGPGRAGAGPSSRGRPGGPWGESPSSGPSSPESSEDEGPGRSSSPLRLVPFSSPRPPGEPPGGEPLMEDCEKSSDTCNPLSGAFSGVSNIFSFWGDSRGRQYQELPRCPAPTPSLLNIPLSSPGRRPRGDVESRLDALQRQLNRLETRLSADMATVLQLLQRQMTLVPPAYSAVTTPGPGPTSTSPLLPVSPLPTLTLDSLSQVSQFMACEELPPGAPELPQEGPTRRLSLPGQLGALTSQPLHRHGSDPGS
# Cytochrome P450 2D6 = Cytochrome P450 2D6 (Homo sapiens, UniProt P10635); test: Inhibition of CYP2D6 (unknown origin); format: ADME
# Sequence of Cytochrome P450 2D6 (P10635 whole entry): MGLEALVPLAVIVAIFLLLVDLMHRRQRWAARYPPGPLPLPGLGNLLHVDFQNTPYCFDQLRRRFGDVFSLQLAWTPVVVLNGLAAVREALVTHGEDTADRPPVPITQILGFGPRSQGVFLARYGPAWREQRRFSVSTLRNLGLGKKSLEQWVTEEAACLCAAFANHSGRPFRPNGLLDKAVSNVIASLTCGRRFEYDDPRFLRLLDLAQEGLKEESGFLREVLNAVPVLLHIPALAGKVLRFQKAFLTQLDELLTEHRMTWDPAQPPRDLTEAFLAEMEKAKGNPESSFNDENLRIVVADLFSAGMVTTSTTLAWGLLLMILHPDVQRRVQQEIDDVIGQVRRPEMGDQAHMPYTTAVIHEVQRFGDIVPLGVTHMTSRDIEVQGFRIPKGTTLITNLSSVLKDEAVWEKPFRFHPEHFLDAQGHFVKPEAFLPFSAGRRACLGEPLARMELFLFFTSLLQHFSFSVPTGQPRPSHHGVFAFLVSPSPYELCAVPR
# [9] = Intrinsic clearance in rat liver microsomes; format: ADME
# [10] = Permeability from basolateral to apical side in human Caco2 cells; format: ADME, cell-based; conditions: Caco-2, read-out: permeability
# [11] = Permeability from apical to basolateral side in human Caco2 cells; format: ADME, cell-based; conditions: Caco-2, read-out: permeability
# Dipeptidyl peptidase 8 = Dipeptidyl peptidase 8 (Homo sapiens, UniProt Q6V1X1); test: Inhibition of human recombinant DPP8
# Sequence of Dipeptidyl peptidase 8 (Q6V1X1 whole entry): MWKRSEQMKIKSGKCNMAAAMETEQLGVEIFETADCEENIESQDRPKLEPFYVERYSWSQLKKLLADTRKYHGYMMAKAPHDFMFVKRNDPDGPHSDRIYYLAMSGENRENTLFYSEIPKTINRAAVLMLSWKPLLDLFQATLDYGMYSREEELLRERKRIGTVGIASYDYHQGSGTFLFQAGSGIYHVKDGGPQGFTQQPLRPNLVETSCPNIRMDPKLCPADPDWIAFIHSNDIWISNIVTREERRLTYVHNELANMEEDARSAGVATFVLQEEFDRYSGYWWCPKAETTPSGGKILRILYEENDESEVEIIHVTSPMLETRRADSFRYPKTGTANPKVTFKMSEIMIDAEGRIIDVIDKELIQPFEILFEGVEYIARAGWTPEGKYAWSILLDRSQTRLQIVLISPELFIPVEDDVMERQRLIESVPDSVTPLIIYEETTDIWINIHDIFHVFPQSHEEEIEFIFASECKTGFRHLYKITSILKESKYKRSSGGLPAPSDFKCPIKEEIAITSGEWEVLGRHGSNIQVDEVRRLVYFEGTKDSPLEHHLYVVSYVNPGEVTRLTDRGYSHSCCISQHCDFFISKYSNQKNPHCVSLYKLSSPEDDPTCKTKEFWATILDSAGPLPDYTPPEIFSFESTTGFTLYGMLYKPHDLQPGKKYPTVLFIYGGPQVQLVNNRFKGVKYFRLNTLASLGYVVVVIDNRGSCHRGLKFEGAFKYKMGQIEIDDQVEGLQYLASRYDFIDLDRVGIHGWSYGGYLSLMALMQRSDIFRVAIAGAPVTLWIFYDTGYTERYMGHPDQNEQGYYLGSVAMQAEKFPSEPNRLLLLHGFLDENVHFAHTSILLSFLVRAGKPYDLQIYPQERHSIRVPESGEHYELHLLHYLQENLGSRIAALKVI
# Rattus norvegicus [12] = species: Rattus norvegicus; test: animal or person; conditions: Sprague-Dawley, Plasma, po, 0.5 h, read-out: INH
# Rattus norvegicus [13] = species: Rattus norvegicus; test: animal or person; conditions: Sprague-Dawley, Plasma, po, 8 h, read-out: INH
# [14] = Oral bioavailability in rat at 3 mg/kg administered in PBS buffer at pH 6.8; format: ADME, organism-based; conditions: in vivo
# [15] = Clearance in rat at 1 mg/kg, iv administered in PBS buffer at pH 6.8; format: ADME, organism-based; design: dose 1 mg/kg, route intravenous; conditions: in vivo
# [16] = Half life in rat at 1 mg/kg, iv administered in PBS buffer at pH 6.8; format: ADME, organism-based; design: dose 1 mg/kg, route intravenous; conditions: in vivo
# [17] = Volume of distribution at steady state in rat at 1 mg/kg, iv administered in PBS buffer at pH 6.8; format: ADME, organism-based; design: dose 1 mg/kg, route intravenous; conditions: in vivo, read-out: Vdss
# [18] = AUC (0 to 8 hrs) in rat at 3 mg/kg, po administered in PBS buffer at pH 6.8; format: ADME, organism-based; design: time < 8 hr, dose 3 mg/kg, route oral; conditions: plasma
# [19] = Cmax in rat at 3 mg/kg, po administered in PBS buffer at pH 6.8; format: ADME, organism-based; design: dose 3 mg/kg, route oral; conditions: in vivo
# [20] = Tmax in rat at 3 mg/kg, po administered in PBS buffer at pH 6.8; format: ADME, organism-based; design: dose 3 mg/kg, route oral; conditions: in vivo
# [21] = Oral bioavailability in rat at 3 mg/kg administered in sodium acetate buffer at pH 4.63; format: ADME, organism-based; conditions: in vivo
# [22] = Clearance in rat at 1 mg/kg, iv administered in sodium acetate buffer at pH 4.63; format: ADME, organism-based; design: dose 1 mg/kg, route intravenous; conditions: in vivo
# [23] = Half life in rat at 1 mg/kg, iv administered in sodium acetate buffer at pH 4.63; format: ADME, organism-based; design: dose 1 mg/kg, route intravenous; conditions: in vivo
# [24] = Volume of distribution at steady state in rat at 1 mg/kg, iv administered in sodium acetate buffer at pH 4.63; format: ADME, organism-based; design: dose 1 mg/kg, route intravenous; conditions: in vivo, read-out: Vdss
# [25] = AUC (0 to 8 hrs) in rat at 3 mg/kg, po administered in sodium acetate buffer at pH 4.63; format: ADME, organism-based; design: time < 8 hr, dose 3 mg/kg, route oral; conditions: plasma
# [26] = Cmax in rat at 3 mg/kg, po administered in sodium acetate buffer at pH 4.63; format: ADME, organism-based; design: dose 3 mg/kg, route oral; conditions: in vivo
# [27] = Tmax in rat at 3 mg/kg, po administered in sodium acetate buffer at pH 4.63; format: ADME, organism-based; design: dose 3 mg/kg, route oral; conditions: in vivo
# Rattus norvegicus [28] = species: Rattus norvegicus; test: animal or person; conditions: Sprague-Dawley, Plasma, po, read-out: INH
# Sequence of Dipeptidyl peptidase 9 (Q86TI2 whole entry): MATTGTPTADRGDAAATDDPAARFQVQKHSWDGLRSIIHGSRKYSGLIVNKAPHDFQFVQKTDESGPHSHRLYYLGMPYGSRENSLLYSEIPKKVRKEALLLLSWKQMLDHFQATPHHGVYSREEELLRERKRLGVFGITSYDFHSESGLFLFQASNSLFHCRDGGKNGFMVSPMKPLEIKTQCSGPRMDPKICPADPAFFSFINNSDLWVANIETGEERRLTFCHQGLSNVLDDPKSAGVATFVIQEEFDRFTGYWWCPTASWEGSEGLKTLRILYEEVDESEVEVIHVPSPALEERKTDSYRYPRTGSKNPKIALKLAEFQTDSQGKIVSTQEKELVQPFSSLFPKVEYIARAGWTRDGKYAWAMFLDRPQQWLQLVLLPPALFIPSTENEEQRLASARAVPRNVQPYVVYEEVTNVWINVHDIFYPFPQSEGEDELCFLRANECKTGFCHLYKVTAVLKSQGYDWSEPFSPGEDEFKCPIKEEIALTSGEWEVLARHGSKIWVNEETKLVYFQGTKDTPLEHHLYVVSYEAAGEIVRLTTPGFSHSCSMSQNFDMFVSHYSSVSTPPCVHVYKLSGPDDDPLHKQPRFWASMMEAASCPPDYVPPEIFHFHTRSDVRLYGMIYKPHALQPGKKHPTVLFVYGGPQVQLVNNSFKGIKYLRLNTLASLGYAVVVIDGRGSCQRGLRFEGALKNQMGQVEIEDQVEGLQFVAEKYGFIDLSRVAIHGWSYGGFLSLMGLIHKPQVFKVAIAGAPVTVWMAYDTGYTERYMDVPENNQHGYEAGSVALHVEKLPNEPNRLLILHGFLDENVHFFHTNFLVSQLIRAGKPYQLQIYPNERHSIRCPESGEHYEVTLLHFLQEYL
compound,measurement,setting,value
Cc1ccc(=O)n([C@H]2CC[C@](CN)(c3cccc(Cl)c3)CC2)n1,pIC50,Dipeptidyl peptidase 9,< 4.52
NC[C@]1(c2cccc(Cl)c2)CC[C@H](n2nc(-c3cccnc3)ccc2=O)CC1,bioavailability,[1],92%
same,clearance,[2],29 mL/min/kg
same,half-life,[3],2.2 h
same,Vd,[4],3.9 L/kg
same,AUC(0-t) at 8 h,[5],4.01 µM·h
same,Cmax,[6],921 nM
same,Tmax,[7],1.8 h
same,pIC50,[8],5.36
same,pIC50,Cytochrome P450 2D6,< 5.00
same,CLint,[9],51.1 µL/min/mg
same,Papp B→A,[10],13 ×10⁻⁶ cm/s
same,Papp A→B,[11],8.6 ×10⁻⁶ cm/s
same,pIC50,Dipeptidyl peptidase 9,< 4.52
same,pIC50,Dipeptidyl peptidase 8,< 4.52
same,inhibition in vivo at 3 mg/kg,Rattus norvegicus [12],91%
same,inhibition in vivo at 3 mg/kg,Rattus norvegicus [13],80%
NC[C@]1(c2cccc(Cl)c2)CC[C@H](N2CCn3c(nnc3C(F)(F)F)C2=O)CC1,bioavailability,[14],17%
same,clearance,[15],69 mL/min/kg
same,half-life,[16],2.7 h
same,Vd,[17],11.7 L/kg
same,AUC(0-t) at 8 h,[18],0.214 µM·h
same,Cmax,[19],57.8 nM
same,Tmax,[20],3.3 h
same,pIC50,[8],< 4.52
same,pIC50,Cytochrome P450 2D6,5.35
same,CLint,[9],21.9 µL/min/mg
same,Papp B→A,[10],4.8 ×10⁻⁶ cm/s
same,Papp A→B,[11],1.6 ×10⁻⁶ cm/s
NC[C@]1(c2cccc(Cl)c2)CC[C@H](N2CCc3c(nc(C(F)(F)F)nc3C3CC3)C2=O)CC1,bioavailability,[21],78%
same,clearance,[22],9.5 mL/min/kg
same,half-life,[23],2.3 h
same,Vd,[24],2.1 L/kg
same,AUC(0-t) at 8 h,[25],7.91 µM·h
same,Cmax,[26],1900 nM
same,Tmax,[27],3.3 h
same,pIC50,[8],6.59
same,pIC50,Cytochrome P450 2D6,5.00
same,CLint,[9],43.4 µL/min/mg
same,Papp B→A,[10],11 ×10⁻⁶ cm/s
same,Papp A→B,[11],4.4 ×10⁻⁶ cm/s
NC[C@]1(c2cccc(Cl)c2)CC[C@H](N2CCn3c(nnc3C(F)(F)F)C2)CC1,pIC50,Dipeptidyl peptidase 9,4.52
NC[C@]1(c2cccc(Cl)c2)CC[C@H](N2CCc3c(nc(C(F)(F)F)nc3C3CC3)C2)CC1,pIC50,Dipeptidyl peptidase 9,< 4.52
same,pIC50,Dipeptidyl peptidase 8,< 4.52
N[C@@H](CC(=O)N1CCn2c(nnc2C(F)(F)F)C1)Cc1cc(F)c(F)cc1F [SITAGLIPTIN],inhibition in vivo at 3 mg/kg,Rattus norvegicus [13],30%
same,inhibition in vivo at 3 mg/kg,Rattus norvegicus [28],82%

# From ChEMBL document CHEMBL3112488, “Discovery of C-(1-aryl-cyclohexyl)-methylamines as selective, orally available inhibitors of dipeptidyl peptidase IV” (Bioorg Med Chem Lett, 2014)
